Source: patent publication US10208019B2, “GLP-1 receptor agonists and uses thereof” (Pfizer Inc., priority 2016, dated 2019)

Columns and labels:
human GLP-1R [1] = molecular target: human GLP-1R (Homo sapiens (Human), UniProt P43220, L260F); test: CHO GLP-1R Clone C6—Assay 2: HTRF cAMP cell-based functional agonist assay (low GLP-1R density); details: for EC50: CHO GLP-1R Clone C6, cAMP HTRF, geometric mean; for Emax: read-out: Assay 2 Emax (%)
human GLP-1R [2] = molecular target: human GLP-1R (Homo sapiens, UniProt P43220, G168S); test: CHO GLP-1R Clone H6—Assay 1: HTRF cAMP cell-based functional agonist assay (high GLP-1R density); details: for EC50: read-out: Assay 1 EC50, CHO GLP-1R Clone H6, cAMP HTRF, geometric mean; for Emax: read-out: Assay 1 Emax (%), CHO GLP-1R Clone H6; for Emax / Assay 1 Emax (%): relative to saturating concentration of full agonist GLP-1 (1 μM), arithmetic mean; for Assay 1 Emax (%): CHO GLP-1R Clone H6
[3] = CHO GLP-1R Clone C6, relative to saturating concentration of full agonist GLP-1 (1 μM), arithmetic mean

human GLP-1R (Homo sapiens, UniProt P43220, G168S), sequence (P43220 24-463 G168S limits assumed): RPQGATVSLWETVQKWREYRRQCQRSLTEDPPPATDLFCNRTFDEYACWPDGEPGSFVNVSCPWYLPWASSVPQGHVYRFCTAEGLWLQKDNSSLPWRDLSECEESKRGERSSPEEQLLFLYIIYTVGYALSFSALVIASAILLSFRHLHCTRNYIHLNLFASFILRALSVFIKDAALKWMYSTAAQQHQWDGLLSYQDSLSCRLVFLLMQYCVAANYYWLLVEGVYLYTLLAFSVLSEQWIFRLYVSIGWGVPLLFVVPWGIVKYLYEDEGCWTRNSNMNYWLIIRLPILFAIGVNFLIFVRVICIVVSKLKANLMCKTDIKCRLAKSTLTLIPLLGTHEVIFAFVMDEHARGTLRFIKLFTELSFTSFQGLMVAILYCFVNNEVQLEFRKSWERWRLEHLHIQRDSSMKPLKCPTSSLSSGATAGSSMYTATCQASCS
human GLP-1R (Homo sapiens (Human), UniProt P43220, L260F), sequence (P43220 24-463 L260F): as the sequence (P43220 24-463 G168S limits assumed) above, with S145G, L237F counted along it

EC50 (human GLP-1R [1])	Emax (human GLP-1R [1]; [3])	EC50 (human GLP-1R [2])	Emax (human GLP-1R [2])	Assay 2 Emax (%) (human GLP-1R [1]; [3])	Assay 1 Emax (%) (human GLP-1R [2])	SMILES
35 nM	78%	1.6 nM	84%	–	–	N#Cc1ccc(COc2cccc(C3CCN(Cc4nc5ccc(C(=O)O)cc5n4Cc4ccon4)CC3)n2)c(F)c1 [Example 10A-65, 2-[(4-{6-[(4-cyano-2-fluorobenzyl)oxy]pyridin-2-yl}piperidin-1-yl)methyl]-1-(1,2-oxazol-3-ylmethyl)-1H-benzimidazole-6-carboxylic acid]
400 nM	–	36 nM	–	86%	78%	COCCn1c(CN2CC[C@@H](c3cccc(OCc4ccc(Cl)cc4F)n3)[C@H](F)C2)nc2ccc(C(=O)O)cc21 (racemic) [Example 1A-22, rac 2-{[(3S,4S)-4-{6-[(4-chloro-2-fluorobenzyl)oxy]pyridin-2-yl}-3-fluoropiperidin-1-yl]methyl}-1-(2-methoxyethyl)-1H-benzimidazole-6-carboxylic acid]
9000 nM	100%	930 nM	86%	–	–	COCCn1c(CN2CCC(c3cccc(OCc4ccccc4)n3)CC2)nc2ccc(C(=O)O)cc21 [Example 1A-10, 2-({4-[6-(benzyloxy)pyridin-2-yl]piperidin-1-yl}methyl)-1-(2-methoxyethyl)-1H-benzimidazole-6-carboxylic acid]
760 nM	91%	38 nM	76%	–	–	C[C@H]1CN(c2cccc(OCc3ccc(C#N)cc3F)n2)CCN1Cc1nc2ccc(C(=O)O)cc2n1Cc1cnnn1C [Example 10A-23]
2100 nM	71%	170 nM	–	–	78%	Cn1c(CN2CCC(c3cccc(OCc4ccc(Cl)cc4)n3)CC2)nc2ccc(C(=O)O)cc21 [Example 9A-07, 2-[(4-{6-[(4-chlorobenzyl)oxy]pyridin-2-yl}piperidin-1-yl)methyl]-1-methyl-1H-benzimidazole-6-carboxylic acid]
13 nM	110%	0.33 nM	82%	–	–	Cn1cncc1Cn1c(CN2CCN(c3cccc(OCc4ccc(Cl)cc4F)n3)CC2)nc2ccc(C(=O)O)cc21 [Example 10A-36, 2-[(4-{6-[(4-chloro-2-fluorobenzyl)oxy]pyridin-2-yl}piperazin-1-yl)methyl]-1-[(1-methyl-1H-imidazol-5-yl)methyl]-1H-benzimidazole-6-carboxylic acid]
1700 nM	99%	55 nM	71%	–	–	Cc1noc(CCn2c(CN3CCC(c4cccc(OCc5ccc(Cl)cc5F)n4)CC3)nc3ccc(C(=O)O)cc32)n1 [Example 11A-29, 2-[(4-{6-[(4-chloro-2-fluorobenzyl)oxy]pyridin-2-yl}piperidin-1-yl)methyl]-1-[2-(3-methyl-1,2,4-oxadiazol-5-yl)ethyl]-1H-benzim idazole-6-carboxylic acid]
2000 nM	82%	63 nM	78%	–	–	O=C(O)c1ccc2nc(CN3CCC(c4cccc(OCc5ccc(Cl)cc5F)n4)CC3)n(C[C@H]3CCCO3)c2c1 [Example 11A-68, 2-[(4-{6-[(4-chloro-2-fluorobenzyl)oxy]pyridin-2-yl}piperidin-1-yl)methyl]-1-[(2R)-tetrahydrofuran-2-ylmethyl]-1H-benzimidazole-6-carboxylic acid]
9.7 nM	100%	0.9 nM	94%	–	–	O=C(O)c1ccc2nc(CN3CCN(c4cccc(OCc5ccc(Cl)cc5F)n4)CC3)n(C[C@@H]3CCO3)c2n1 [Example 10A-74, 2-[(4-{6-[(4-chloro-2-fluorobenzyl)oxy]pyridin-2-yl}piperazin-1-yl)methyl]-3-[(2S)-oxetan-2-ylmethyl]-3H-imidazo[4,5-b]pyridine-5-carboxylic acid]
170 nM	75%	4.1 nM	67%	–	–	C[C@H]1CN(c2cccc(OCc3ccc(Cl)cc3F)n2)CCN1Cc1nc2ccc(C(=O)O)cc2n1Cc1cocn1 [Example 10A-13]
1200 nM	94%	24 nM	76%	–	–	COCCn1c(CN2CCC(c3cccc(OCc4ccc(Cl)cc4F)n3)CC2)nc2ccc(C(=O)O)nc21 [Example 2A-17, 2-[(4-{6-[(4-chloro-2-fluorobenzyl)oxy]pyridin-2-yl}piperidin-1-yl)methyl]-3-(2-methoxyethyl)-3H-imidazo[4,5-b]pyridine-5-carboxylic acid]
16 nM	86%	0.5 nM	78%	–	–	C[C@H]1CN(c2ccc(F)c(OCc3ccc(F)cc3F)n2)CCN1Cc1nc2ccc(C(=O)O)cc2n1C[C@@H]1CCO1 [Example 10A-56, 2-{[(2S)-4-{6-[(2,4-difluorobenzyl)oxy]-5-fluoropyridin-2-yl}-2-methylpiperazin-1-yl]methyl}-1-[(2S)-oxetan-2-ylmethyl]-1H-benzimidazole-6-carboxylic acid]
20 nM	87%	2 nM	84%	–	–	CCn1nncc1Cn1c(CN2CCC(c3cccc(OCc4ccc(C#N)cc4F)n3)CC2)nc2ccc(C(=O)O)cc21 [Example 10A-69, 2-[(4-{6-[(4-cyano-2-fluorobenzyl)oxy]pyridin-2-yl}piperidin-1-yl)methyl]-1-[(1-ethyl-1H-1,2,3-triazol-5-yl)methyl]-1H-benzimidazole-6-carboxylic acid]
27 nM	87%	1.3 nM	72%	–	–	C[C@H]1CN(c2cccc(OCc3ccc(C#N)cc3F)n2)CCN1Cc1nc2ccc(C(=O)O)cc2n1Cc1ncco1 [Example 10A-15, 2-{[(2S)-4-{6-[(4-cyano-2-fluorobenzyl)oxy]pyridin-2-yl}-2-methylpiperazin-1-yl]methyl}-1-(1,3-oxazol-2-ylmethyl)-1H-benzimidazole-6-carboxylic acid]
330 nM	96%	25 nM	78%	–	–	O=C(O)c1ccc2nc(CN3CCC(c4cccc(OCc5ccc(Cl)cc5F)n4)CC3)n(Cc3c[nH]nn3)c2c1 [Example 11A-23, 2-[(4-{6-[(4-chloro-2-fluorobenzyl)oxy]pyridin-2-yl}piperidin-1-yl)methyl]-1-(1H-1,2,3-triazol-4-ylmethyl)-1H-benzimidazole-6-carboxylic acid]
460 nM	66%	31 nM	81%	–	–	O=C(O)c1ccc2nc(CN3CCC(c4cccc(OCc5ccc(Cl)cc5F)n4)CC3)n([C@@H]3CCOC3)c2c1 [Example 10A-60]
94 nM	92%	9.4 nM	69%	–	–	O=C(O)c1ccc2nc(CN3CCC(c4cccc(OCc5ccc(Cl)cc5F)n4)CC3)n(Cc3cn[nH]c3)c2c1 [Example 11A-15, 2-[(4-{6-[(4-chloro-2-fluorobenzyl)oxy]pyridin-2-yl}piperidin-1-yl)methyl]-1-(1H-pyrazol-4-ylmethyl)-1H-benzimidazole-6-carboxylic acid]

SMILES	EC50 (human GLP-1R [1])	Emax (human GLP-1R [1]; [3])	EC50 (human GLP-1R [2])	Emax (human GLP-1R [2])	Assay 2 Emax (%) (human GLP-1R [1]; [3])	Assay 1 Emax (%) (human GLP-1R [2])
O=C(O)c1ccc2nc(CN3CCC(c4cccc(OCc5ccc(Cl)cc5F)n4)CC3)n(CCN3CCOC3=O)c2c1 [Example 11A-20]	270 nM	–	15 nM	–	–	–
